Assay results published in patent US10927136B2, “Phosphorus prodrugs of pyrazolo-substituted pyrimidine sGC stimulators” (Cyclerion Therapeutics, Inc., priority 2016, dated 2021).

What was measured:
[1] = Rat PK following intravenous and oral dosing; type: in vivo, male Sprague-Dawley rats
Experimental: PK in rats was determined following intravenous and oral dosing.
For the intravenous (IV) and oral (PO) experiments, two groups of 4 male Sprague-Dawley rats each were used. The PO group was dosed with 3.0 mg/kg of Compound I-1 formulated as a solution in phosphate buffered saline (PBS). The IV group was dosed with 1.0 mg/kg of Compound I-1 formulated as a solution in phosphate buffered saline (PBS). IV doses were administered through an indwelling catheter in the jugular vein. Following dose administration, the catheter was flushed with ca. 0.25 mL of saline. PO doses were delivered to the stomach using a syringe and gavage tube. Following oral dosage administration, the gavage tube was flushed with approximately 0.5 mL of water to ensure complete delivery of the full dose.
Plasma samples were collected as follows: for the IV and PO experiments, samples were collected at 5 min, 15 min, 30 min, 1 hour, 2 hours, 4 hours, 6 hours, 8 hours, 12 hours, 16 hours, 20 hours and 24 hours, post-dosing. Blood samples (0.25 mL) were collected from the jugular vein. These samples were kept on ice until processed for plasma. Blood samples were centrifuged at 3200 rpm for 5 minutes at approximately 5° C. within 1 hour of collection. Plasma was directly transferred to a 96-well plate tube (0.125 mL). Plug caps were placed on the tubes and the tubes frozen at approximately −70° C. and stored until analysis.
Plasma was collected and analyzed for the presence of Compound I-1 and Intermediate 3 derived from Compound I-1.
Intermediate 3, Compound I-1 and the internal standard (IS, Compound Z) were extracted from plasma by precipitation. Samples were analyzed using liquid chromatography (LC) with tandem mass spectrometric detection (MS/MS) using electrospray ionization. The standard curve range was from 0.1 to 400 ng/mL.
Thawed plasma samples and the required amount of plasma for standards, blanks and dilutions. Prepared crash solution: room temp ACN containing 1 ng/mL Compound Z as Internal Standard. Created a 1× mixed (Intermediate 3 and Compound I-1) standard curve by diluting the 100× stocks (5 uL of each 100× standard into 495 uL of plasma). Transferred 50 uL of each plasma sample/dilution, standard, or blank. Added 200 uL of the crash solution containing IS. Vortexed for 5 minutes. Centrifuged at 16,000 g at room temperature for 10 min. Transferred 200 uL of each supernatant to a plate. Dried under nitrogen in a TurboVap at 55° C. Re-suspended each sample in 50 uL of 0.1% Formic Acid, covered and vortexed. Analyzed by LC-MSMS.

HEK = target: T1, HEK (Homo sapiens, UniProt Q02108+Q02153); experiment: HEK EC50 quoted in rat PO PK table (assay version not stated); type: cell-based; conditions: listed in rat PO PK table for Intermediate 3
T1 construct: sGC enzyme activity values in HEK cells; endogenous in cells; host or cells: HEK cells
T1 sequence (Q02153 1-619): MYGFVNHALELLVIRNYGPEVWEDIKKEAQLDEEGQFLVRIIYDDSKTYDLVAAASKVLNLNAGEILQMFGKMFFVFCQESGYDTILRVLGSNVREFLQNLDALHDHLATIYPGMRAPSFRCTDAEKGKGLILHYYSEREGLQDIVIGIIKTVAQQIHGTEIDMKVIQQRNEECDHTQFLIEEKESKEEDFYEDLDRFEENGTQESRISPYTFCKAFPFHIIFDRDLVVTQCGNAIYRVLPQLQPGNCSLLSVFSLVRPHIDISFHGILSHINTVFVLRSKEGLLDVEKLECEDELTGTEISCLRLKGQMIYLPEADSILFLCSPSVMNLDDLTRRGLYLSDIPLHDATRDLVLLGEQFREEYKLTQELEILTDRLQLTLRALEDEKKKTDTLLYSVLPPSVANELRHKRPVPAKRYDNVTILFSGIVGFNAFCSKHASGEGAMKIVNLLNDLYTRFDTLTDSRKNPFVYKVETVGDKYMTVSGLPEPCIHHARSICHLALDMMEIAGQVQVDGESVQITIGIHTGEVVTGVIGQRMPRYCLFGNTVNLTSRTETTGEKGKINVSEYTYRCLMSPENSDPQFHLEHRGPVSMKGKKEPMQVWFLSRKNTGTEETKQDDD
T1 sequence (Q02108 1-690): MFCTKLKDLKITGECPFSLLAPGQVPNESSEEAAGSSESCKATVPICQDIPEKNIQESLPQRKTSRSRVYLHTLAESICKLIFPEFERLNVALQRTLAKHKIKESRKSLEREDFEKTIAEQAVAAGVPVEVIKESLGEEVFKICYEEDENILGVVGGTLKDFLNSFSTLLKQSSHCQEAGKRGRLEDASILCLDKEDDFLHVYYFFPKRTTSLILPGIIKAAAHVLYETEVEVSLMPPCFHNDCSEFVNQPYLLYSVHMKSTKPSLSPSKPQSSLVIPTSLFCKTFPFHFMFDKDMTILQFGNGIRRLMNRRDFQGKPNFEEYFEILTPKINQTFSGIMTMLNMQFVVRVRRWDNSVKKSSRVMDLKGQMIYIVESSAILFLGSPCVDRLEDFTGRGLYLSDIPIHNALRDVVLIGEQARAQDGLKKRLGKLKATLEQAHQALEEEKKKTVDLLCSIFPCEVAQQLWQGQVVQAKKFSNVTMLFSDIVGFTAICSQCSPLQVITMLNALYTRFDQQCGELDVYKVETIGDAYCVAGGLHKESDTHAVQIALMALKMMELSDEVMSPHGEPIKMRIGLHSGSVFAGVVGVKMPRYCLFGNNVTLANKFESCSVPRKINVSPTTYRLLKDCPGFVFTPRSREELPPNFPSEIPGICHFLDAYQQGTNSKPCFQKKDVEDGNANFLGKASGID

[2] = male, Sprague-Dawley, plasma, Compound I-1 1 mg/kg IV in PBS, analyte Compound I-1

Row | prodrug in plasma samples ([1]; following PO dosing of Compound I-1 3.0 mg/kg) | AUC(0-inf) [1, 2] | Cmax [1, 2] | clearance [1, 2] | half-life ([1]; male, Sprague-Dawley, plasma, iv, 1 mg/kg, Compound I-1 1 mg/kg IV in PBS, analyte Compound I-1) | EC50 (HEK) | Structure (SMILES)
1 | not observed in any plasma samples | 549 ng·h/mL | 2780 ± 2450 ng/mL | 34.3 mL/min/kg | ~9 min | – | O=P(O)(O)OC(CNc1nc(-c2cc(-c3ccon3)n(Cc3ccccc3F)n2)ncc1F)(C(F)(F)F)C(F)(F)F [Compound I-1]
2 | – | – | – | – | – | 100 nM | OC(CNc1nc(-c2cc(-c3ccon3)n(Cc3ccccc3F)n2)ncc1F)(C(F)(F)F)C(F)(F)F [Intermediate 3]
